Target: PDE3 enzyme (Homo sapiens (Human), UniProt Q14432)
Assay: PDE3 inhibition assay (BIOMOL GREEN Quantizyme Assay System)
Format: biochemical
Conditions: PDE3 from platelets isolated from human blood; cAMP substrate; 1 hour at 37° C.; read at 620 nm
Protocol: PDE3 inhibition assay was performed a BIOMOL GREEN™ Quantizyme Assay System (catalogue No. BML-AK800-0001). The Platelets isolated from human blood were used as a source of PDE3 enzyme. 10 mL blood collected in a vacutainer tube (containing K3 EDTA) and centrifuged at 190×g for 15 min at room temperature. Top layer (platelet rich plasma) collected, centrifuged at 2500 g for 5 min at 22° C. (Room temp.) The pellet was washed with 2 ml of 50 mM tris buffer (pH-7.4) containing 1 mM MgCl2 and centrifuged at 2500 g for 5 min. Then 200 μl of assay buffer (from PDE kit, Enzo Life Sciences) was added to the pellet and sonicated at 30 s per ml. Pellet was freeze thawed for three times (−80° C.) in order to rupture the platelet membrane and release the PDE enzyme. Then the cell homogenate was centrifuged at 2500 rpm for 5 min. Supernatant was collected and used as source for PDE3 enzyme. In 96 well plate (Prod. No. BML-KI101), we added supernatant having PDE3 enzyme, PDE3 assay buffer, cAMP substrate, 5′ nucleotidase and test or standard compound and incubated for 1 hour at 37° C. The reaction was arrested by the addition 100 μl BIOMOL GREEN reagent incubated in room temp for 20 min. The green color developed was measured at 620 nm.
The in vitro Phosphodiestarase (PDE3) inhibitory activity of compounds 1a-q, were measured using a BIOMOL GREEN™ Quantizyme Assay System (catalogue No. BML-AK800-0001). The basic principle for this assay is the cleavage of c-AMP or c-GMP into their respective nucleotide by a cyclic nucleotide phosphodiesterase. The nucleotide (AMP or GMP) released is further cleaved into the nucleoside and phosphate by the enzyme 5′-nucleotidase. The extent of phosphate released is directly proportional to the PDE activity. In this screening method, the released phosphate by the enzymatic cleavage is quantified using BIOMOL GREEN reagent in a modified malachite green assay. The resulting green colour with λmax at 620 nm is directly proportional to the released phosphate and then PDE activity.

Sequence of PDE3 enzyme (Q14432 whole entry): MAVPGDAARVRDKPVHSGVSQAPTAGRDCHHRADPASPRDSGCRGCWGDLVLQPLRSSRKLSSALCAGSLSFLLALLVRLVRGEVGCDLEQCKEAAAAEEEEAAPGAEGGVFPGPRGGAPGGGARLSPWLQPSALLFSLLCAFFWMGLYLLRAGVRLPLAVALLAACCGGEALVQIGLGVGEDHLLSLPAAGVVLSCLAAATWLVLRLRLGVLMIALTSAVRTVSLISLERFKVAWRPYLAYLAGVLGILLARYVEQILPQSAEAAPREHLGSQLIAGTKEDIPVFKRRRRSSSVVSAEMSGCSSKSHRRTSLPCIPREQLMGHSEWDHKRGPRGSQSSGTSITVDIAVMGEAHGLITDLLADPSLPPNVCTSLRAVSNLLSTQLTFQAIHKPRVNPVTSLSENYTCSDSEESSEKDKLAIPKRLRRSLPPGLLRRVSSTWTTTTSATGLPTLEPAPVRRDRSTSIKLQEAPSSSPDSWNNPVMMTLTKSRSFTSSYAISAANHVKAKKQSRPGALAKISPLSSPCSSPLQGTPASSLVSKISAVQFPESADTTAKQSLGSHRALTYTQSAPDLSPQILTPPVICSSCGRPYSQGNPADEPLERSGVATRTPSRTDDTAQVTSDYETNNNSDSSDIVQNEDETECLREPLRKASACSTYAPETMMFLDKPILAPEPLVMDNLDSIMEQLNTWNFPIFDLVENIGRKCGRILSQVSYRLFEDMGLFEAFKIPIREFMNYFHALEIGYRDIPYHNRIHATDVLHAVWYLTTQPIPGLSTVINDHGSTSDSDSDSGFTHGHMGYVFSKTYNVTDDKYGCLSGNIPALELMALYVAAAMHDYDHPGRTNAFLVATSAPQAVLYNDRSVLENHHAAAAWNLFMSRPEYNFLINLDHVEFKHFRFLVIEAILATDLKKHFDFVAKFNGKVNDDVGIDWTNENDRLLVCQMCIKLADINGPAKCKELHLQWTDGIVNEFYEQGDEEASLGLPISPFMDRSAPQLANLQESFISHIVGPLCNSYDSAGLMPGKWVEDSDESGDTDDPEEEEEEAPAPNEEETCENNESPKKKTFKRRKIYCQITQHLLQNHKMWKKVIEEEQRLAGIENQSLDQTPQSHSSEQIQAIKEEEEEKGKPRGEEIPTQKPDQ

| Structure (SMILES) | IC50 [nM] |
| --- | --- |
| Cn1c(=O)c2cc(Cc3ccc(Br)cc3)c(=O)[nH]c2n(C)c1=O [Compound 1k, 6-(4-Bromobenzyl)-1,3-dimethyl-1,2,3,4,7,8-hexahydropyrido[2,3-d]pyrimidine-2,4,7-trione] | 4.8 |
| Cn1c(=O)c2cc(Cc3ccccc3)c(=O)[nH]c2n(C)c1=O [Compound 1a, 6-Benzyl-1,3-dimethyl-1,2,3,4,7,8-hexahydropyrido[2,3-d]pyrimidine-2,4,7-trione] | 11800 |
| Cn1c(=O)c2cc(Cc3ccccc3Br)c(=O)[nH]c2n(C)c1=O [Compound 1i, 6-(2-Bromobenzyl)-1,3-dimethyl-1,2,3,4,7,8-hexahydropyrido[2,3-d]pyrimidine-2,4,7-trione] | 6.6 |
| Cn1c(=O)c2cc(Cc3ccc(Cl)cc3)c(=O)[nH]c2n(C)c1=O [Compound 1g, 6-(4-Chlorobenzyl)-1,3-dimethyl-1,2,3,4,7,8-hexahydropyrido[2,3-d]pyrimidine-2,4,7-trione] | 12.5 |

Further compounds by falling IC50, results first:

| IC50 [nM] | Structure (SMILES) |
| --- | --- |
| 48.8 | Cn1c(=O)c2cc(Cc3ccccc3F)c(=O)[nH]c2n(C)c1=O [Compound 1b, 6-(2-Fluorobenzyl)-1,3-dimethyl-1,2,3,4,7,8-hexahydropyrido[2,3-d]pyrimidine-2,4,7-trione] |
| 32.3 | Cn1c(=O)c2cc(Cc3cccc(F)c3)c(=O)[nH]c2n(C)c1=O [Compound 1c, 6-(3-Fluorobenzyl)-1,3-dimethyl-1,2,3,4,7,8-hexahydropyrido[2,3-d]pyrimidine-2,4,7-trione] |

Source: patent publication US9242982B2, “Pyridopyrimidine based derivatives as potential phosphodiesterase 3 (PDE3) inhibitors and a process for the preparation thereof” (COUNCIL OF SCIENTIFIC & INDUSTRIAL RESEARCH, priority 2013, dated 2016)
